Ki data for 2 compounds are collected here from ChEMBL document CHEMBL2074375, “Comparison between isopropyl unoprostone and latanoprost by prostaglandin E(2)induction, affinity to prostaglandin transporter, and intraocular metabolism” (Exp Eye Res, 2002).

Molecules are shown by their SMILES.

This test concerns the target Solute carrier organic anion transporter family member 2A1 (Homo sapiens, UniProt Q92959). Description: TP_TRANSPORTER: inhibition of PGE1 uptake (PGE1: 0.0004 uM) in PGT-expressing HeLa cells. In kind it is functional, cell-based.

The Ki is the equilibrium dissociation constant of an inhibitor or competing ligand from its target. A high value points to weaker binding. In turn, `O=C(O)CCC/C=C\C[C@@H]1[C@@H](CC[C@@H](O)CCc2ccccc2)[C@H](O)C[C@@H]1O` [LATANOPROST ACID] registered a Ki of 0.149 µM.

`CC(C)OC(=O)CCC/C=C\C[C@@H]1[C@@H](CC[C@@H](O)CCc2ccccc2)[C@H](O)C[C@@H]1O` [LATANOPROST] came in with a Ki above 10 µM.
